Source: US9796700B2 (Celgene CAR LLC, priority 2013, dated 2017)

Target: Erk1 (Homo sapiens (Human), UniProt P27361)
Assay: Protein Mass Modification Assay (intact protein MALDI)
Assay type: binding
Summary of the method: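 Human Erk1 was incubated 60 min at room temperature with a 10-fold molar excess of compound, then analysed as intact protein by MALDI with sinapinic acid matrix. The centroid mass shift versus untreated protein was divided by compound molecular weight to give percent modified protein.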

Sequence of Erk1 (P27361 whole entry, looked up): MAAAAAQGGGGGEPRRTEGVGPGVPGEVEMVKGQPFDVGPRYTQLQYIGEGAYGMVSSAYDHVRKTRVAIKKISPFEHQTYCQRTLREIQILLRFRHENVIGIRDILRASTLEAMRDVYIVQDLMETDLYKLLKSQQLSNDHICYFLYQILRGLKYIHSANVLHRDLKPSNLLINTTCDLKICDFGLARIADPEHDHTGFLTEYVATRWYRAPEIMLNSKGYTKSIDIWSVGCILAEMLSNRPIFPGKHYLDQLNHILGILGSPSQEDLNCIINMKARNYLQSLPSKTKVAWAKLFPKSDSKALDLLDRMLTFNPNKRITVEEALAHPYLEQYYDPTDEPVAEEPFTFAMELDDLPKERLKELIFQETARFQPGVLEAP

Row | Structure (SMILES) | ERK1 Mass Mod (%)
1 | C=CC(=O)Nc1cc(C)ccc1Nc1nc(Nc2cc(C(=O)NCCO)c(F)cc2C)ncc1Cl [Compound I-234, 5-((4-((2-acrylamido-4-methylphenyl)amino)-5-chloropyrimidin-2-yl)amino)-2-fluoro-N-(2-hydroxyethyl)-4-methylbenzamide] | F (provided a mass modification of 31-69%)
2 | C=CC(=O)Nc1cc(C)ccc1Nc1nc(Nc2cc(C(N)=O)ccn2)ncc1Cl [Compound I-238, 2-((4-((2-acrylamido-4-methylphenyl)amino)-5-chloropyrimidin-2-yl)amino)isonicotinamide] | E (provided a mass modification of ≧70%)
3 | C=CC(=O)Nc1cc(C)ccc1Nc1nc(Nc2cc(C(C)=O)ccc2C)ncc1Cl [Compound I-239, N-(2-((2-((5-acetyl-2-methylphenyl)amino)-5-chloropyrimidin-4-yl)amino)-5-methylphenyl)acrylamide] | E (key: E: provided a mass modification of ≧70%; F: provided a mass modification of 31-69%; G: proived a mass modification ≦30%)
4 | C=CC(=O)Nc1cc(OC)ccc1Nc1nc(Nc2cc(Cl)nc(OC)c2)ncc1Cl [Compound I-245, N-(2-((5-chloro-2-((2-chloro-6-methoxypyridin-4-yl)amino)pyrimidin-4-yl)amino)-5-methoxyphenyl)acrylamide] | F (provided a mass modification of 31-69%)
5 | C=CC(=O)Nc1ccccc1Nc1nc(Nc2cc(Cl)nc(OC)c2)ncc1Cl [Compound I-246, N-(2-((5-chloro-2-((2-chloro-6-methoxypyridin-4-yl)amino)pyrimidin-4-yl)amino)phenyl)acrylamide] | E (provided a mass modification of ≧70%)
6 | C=CC(=O)Nc1ccccc1Nc1nc(Nc2ccc(N3CCOCC3)cc2OC)ncc1C(N)=O [Compound I-249, 4-((2-acrylamidophenyl)amino)-2-((2-methoxy-4-morpholinophenyl)amino)pyrimidine-5-carboxamide] | F (provided a mass modification of 31-69%)
7 | C=CC(=O)Nc1ccccc1Nc1nc(Nc2ccc3c(c2OC)CCCC(=O)N3CCN2CCOCC2)ncc1C(N)=O [Compound I-252, 4-((2-acrylamidophenyl)amino)-2-((6-methoxy-1-(2-morpholinoethyl)-2-oxo-2,3,4,5-tetrahydro-1H-benzo[b]azepin-7-yl)amino)pyrimidine-5-carboxamide] | F (provided a mass modification of 31-69%)
8 | C=CC(=O)Nc1ccccc1Nc1nc(Nc2ccc3c(c2OC)CCCC(=O)N3CCCN2CCOCC2)ncc1C(N)=O [Compound I-253, 4-((2-acrylamidophenyl)amino)-2-((6-methoxy-1-(3-morpholinopropyl)-2-oxo-2,3,4,5-tetrahydro-1H-benzo[b]azepin-7-yl)amino)pyrimidine-5-carboxamide] | F (provided a mass modification of 31-69%)
9 | C=CC(=O)Nc1ccccc1Nc1nc(Nc2ccc(OCCCN3CCOCC3)cc2OC)ncc1C(N)=O [Compound I-254, 4-((2-acrylamidophenyl)amino)-2-((2-methoxy-4-(3-morpholinopropoxy)phenyl)amino)pyrimidine-5-carboxamide] | E (provided a mass modification of ≧70%)
10 | C=CC(=O)Nc1ccccc1Nc1nc(Nc2ccc(N3CCOCC3)cc2OC)ncc1C(C)=O [Compound I-273, N-(2-(5-acetyl-2-(2-methoxy-4-morpholinophenylamino)pyrimidin-4-ylamino)phenyl) acrylamide] | G (proived a mass modification ≦30%)
11 | C=CC(=O)Nc1ccccc1Nc1nc(Nc2ccc(N3CCOCC3)cc2OC)ncc1/C(C)=N/OC [Compound I-274, (E)-N-(2-((2-((2-methoxy-4-morpholinophenyl)amino)-5-(1-(methoxyimino)ethyl)pyrimidin-4-yl)amino)phenyl)acrylamide] | G (proived a mass modification ≦30%)
12 | C=CC(=O)Nc1ccccc1Nc1nc(Nc2cc(OC)nc(N3CCCCC3)c2)ncc1C(F)(F)F [Compound I-282, N-(2-((2-((2-Methoxy-6-(piperidin-1-yl)pyridin-4-yl)amino)-5-(trifluoromethyl)pyrimidin-4-yl)amino)phenyl)acrylamide] | E (provided a mass modification of ≧70%)

Now from value to compound:

Row | ERK1 Mass Mod (%) | Structure (SMILES)
13 | E (provided a mass modification of ≧70%) | C=CC(=O)Nc1ccccc1Nc1nc(Nc2cc(C(=O)NCCO)c(F)cc2C)ncc1Cl [Compound I-232, 5-((4-((2-acrylamidophenyl)amino)-5-chloropyrimidin-2-yl)amino)-2-fluoro-N-(2-hydroxyethyl)-4-methylbenzamide]
14 | E (provided a mass modification of ≧70%) | C=CC(=O)Nc1cc(C)ccc1Nc1nc(Nc2cc(C(=O)NC)c(F)cc2C)ncc1Cl [Compound I-233, 5-((4-((2-acrylamido-4-methylphenyl)amino)-5-chloropyrimidin-2-yl)amino)-2-fluoro-N,4-dimethylbenzamide]
15 | E (provided a mass modification of ≧70%) | C=CC(=O)Nc1cc(C)ccc1Nc1nc(Nc2ccnc(OC)c2)ncc1Cl [Compound I-235, N-(2-((5-chloro-2-((2-methoxypyridin-4-yl)amino)pyrimidin-4-yl)amino)-5-methylphenyl)acrylamide]
16 | E (provided a mass modification of ≧70%) | C=CC(=O)Nc1cc(C)ccc1Nc1nc(Nc2ccncc2C)ncc1Cl [Compound I-236, N-(2-((5-chloro-2-((3-methylpyridin-4-yl)amino)pyrimidin-4-yl)amino)-5-methylphenyl)acrylamide]
17 | G (proived a mass modification ≦30%) | C=CC(=O)Nc1ccccc1Nc1nc(Nc2ccc(N3CCOCC3)cc2OC)ncc1C(=O)NC [Compound I-250, 4-(2-acrylamidophenylamino)-2-(2-methoxy-4-morpholinophenylamino)-N-methylpyrimidine-5-carboxamide]
18 | G (proived a mass modification ≦30%) | C=CC(=O)Nc1ccccc1Nc1nc(Nc2ccc(N3CCOCC3)cc2OC)ncc1C(=O)NCC [Compound I-251, 4-((2-acrylamidophenyl)amino)-N-ethyl-2-((2-methoxy-4-morpholinophenyl)amino)pyrimidine-5-carboxamide]
19 | E (provided a mass modification of ≧70%) | C=CC(=O)Nc1ccccc1Oc1nc(Nc2ccc(N3CCC[C@@H]3CO)cc2OC)ncc1C(N)=O [Compound I-263, (R)-4-(2-acrylamidophenoxy)-2-((4-(2-(hydroxymethyl)pyrrolidin-1-yl)-2-methoxyphenyl)amino)pyrimidine-5-carboxamide]
20 | E (provided a mass modification of ≧70%) | C=CC(=O)Nc1ccccc1Oc1nc(Nc2ccc(N3CCC[C@@H]3C(N)=O)cc2OC)ncc1C(N)=O [Compound I-266, (R)-4-(2-acrylamidophenoxy)-2-((4-(2-carbamoylpyrrolidin-1-yl)-2-methoxyphenyl)amino)pyrimidine-5-carboxamide]
21 | E (provided a mass modification of ≧70%) | C=CC(=O)Nc1ccccc1Oc1nc(NC(C)(C)C)ncc1C(N)=O [Compound I-267, 4-(2-acrylamidophenoxy)-2-(tert-butylamino)pyrimidine-5-carboxamide]
22 | G (proived a mass modification ≦30%) | C=CC(=O)Nc1ccccc1Nc1nc(Nc2ccc(N3CCOCC3)cc2OC)ncc1/C(C)=N/O [Compound I-275, (E)-N-(2-((5-(1-(hydroxyimino)ethyl)-2-((2-methoxy-4-morpholinophenyl)amino)pyrimidin-4-yl)amino)phenyl)acrylamide]
